The Kinase Knowledgebase extract (Sharma et al. 2016)
pIC50: −log10 of the molar value.

What follows are compounds tested against PIK3CD (Human) (UniProt O00329) (assay: Enzyme Assay).
Sequence of PIK3CD (Human) (O00329 whole entry, looked up): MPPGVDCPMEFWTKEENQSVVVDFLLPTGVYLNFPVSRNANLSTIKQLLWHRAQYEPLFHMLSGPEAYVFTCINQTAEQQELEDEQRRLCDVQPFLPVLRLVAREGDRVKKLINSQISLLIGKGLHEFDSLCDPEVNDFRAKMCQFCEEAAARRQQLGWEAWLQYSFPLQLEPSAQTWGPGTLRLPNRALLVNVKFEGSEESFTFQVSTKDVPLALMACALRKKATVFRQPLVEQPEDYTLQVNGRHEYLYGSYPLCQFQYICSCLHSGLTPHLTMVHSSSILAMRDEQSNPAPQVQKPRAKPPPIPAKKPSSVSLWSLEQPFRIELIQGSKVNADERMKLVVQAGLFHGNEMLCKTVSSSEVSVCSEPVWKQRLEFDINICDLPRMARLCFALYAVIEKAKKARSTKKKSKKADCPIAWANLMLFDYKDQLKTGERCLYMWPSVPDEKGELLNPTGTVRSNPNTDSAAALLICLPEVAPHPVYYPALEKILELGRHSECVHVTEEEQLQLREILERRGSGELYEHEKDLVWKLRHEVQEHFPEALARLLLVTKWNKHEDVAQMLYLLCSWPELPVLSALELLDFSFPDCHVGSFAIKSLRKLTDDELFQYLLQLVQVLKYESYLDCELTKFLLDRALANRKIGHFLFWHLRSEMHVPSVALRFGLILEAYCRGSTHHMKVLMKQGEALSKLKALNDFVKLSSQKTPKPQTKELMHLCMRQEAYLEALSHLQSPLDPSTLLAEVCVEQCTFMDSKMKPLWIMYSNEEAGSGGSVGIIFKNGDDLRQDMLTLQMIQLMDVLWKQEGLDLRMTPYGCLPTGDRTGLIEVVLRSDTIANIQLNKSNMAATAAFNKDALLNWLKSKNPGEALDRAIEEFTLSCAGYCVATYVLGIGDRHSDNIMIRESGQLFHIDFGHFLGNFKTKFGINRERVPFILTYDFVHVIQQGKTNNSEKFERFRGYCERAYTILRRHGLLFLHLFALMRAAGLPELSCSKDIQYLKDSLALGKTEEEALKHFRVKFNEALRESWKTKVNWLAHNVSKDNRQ

Structure (SMILES)	pIC50
CCn1c(-c2cnc(C)nc2)nc2c(O[C@H]3CCN(C(=O)[C@@H](N)C(C)C)C3)ncnc21	8.01
CCC(=O)N1CC[C@H](Oc2ncnc3c2nc(Oc2ccc(OC)c(F)c2)n3C)C1	6.92
CCn1ncc(-c2nc3c(O[C@H]4CCN(C(=O)c5cc(C(C)(C)C)nn5C)C4)ncnc3n2C)c1C	6.82
CCn1c(-c2ccc(OC)nc2)nc2c(O[C@H]3CCN(C(=O)C4CC(F)(F)C4)C3)ncnc21	> 9.00
CCn1c(-c2cnc(C)nc2)nc2c(O[C@H]3CCN(C(=O)[C@H]4C[C@H]5CC[C@@H]4C5)C3)ncnc21	8.92
CCn1ncc(-c2nc3c(O[C@H]4CCN(S(=O)(=O)c5ccc(-c6ccccc6)cc5)C4)ncnc3n2C)c1C	5.34
CCn1ncc(-c2nc3c(O[C@H]4CCN(C(=O)C5CCCO5)C4)ncnc3n2C)c1C (some centres undefined)	7.92
CCn1c(-c2ccc(OC)nc2)nc2c(O[C@H]3CCN(C(=O)C(C)C)C3)ncnc21	8.68
CCC(=O)N1CC[C@H](Oc2ncnc3c2nc(-c2cnc4[nH]nc(C)c4c2)n3C)C1	7.64
CCn1c(-c2cnc(C)nc2)nc2c(O[C@H]3CCN(C(=O)N4CC(OC)C4)C3)ncnc21	8.74
CCn1c(-c2ccc(OC)nc2)nc2c(O[C@H]3CCN(C(=O)C4CC4)C3)ncnc21	9.00
CCn1c(-c2cnc(N)c(C(F)(F)F)c2)nc2c(O[C@H]3CCN(C(=O)C4CC4)C3)ncnc21	8.96
CCn1ncc(-c2nc3c(O[C@H]4CCN(S(=O)(=O)c5ccc6ccccc6c5)C4)ncnc3n2C)c1C	6.66
CCn1ncc(-c2nc3c(O[C@@H]4CC[C@H](NC(=O)C5CCOCC5)C4)ncnc3n2C)c1C	6.54
Cc1cc2cccc(-c3nc4c(O[C@H]5CCN(C(=O)OC(C)(C)C)C5)ncnc4n3C)c2[nH]1	6.18
CCn1c(-c2cnc3[nH]ccc3c2)nc2c(O[C@H]3CCN(C(=O)C4CC4)C3)ncnc21	> 9.00
CCn1c(-c2cnc(C)nc2)nc2c(O[C@@H]3CCN(C(=O)N4CC(F)(F)C4)C3)ncnc21	8.23
CCn1ncc(-c2nc3c(O[C@H]4CCN(C(=O)c5cc(C(F)(F)F)nn5C)C4)ncnc3n2C)c1C	7.59
CCC(=O)N1CC[C@H](Oc2ncnc3c2nc(-c2cnn(-c4ccccc4)c2C)n3C)C1	8.44
CCn1c(-c2cnc(C)nc2)nc2c(O[C@H]3CCN(C(=O)OC(C)(C)C)[C@@H]3C)ncnc21	8.40
CCC(=O)N1CC[C@H](Oc2ncnc3c2nc(-c2ccc(C(F)(F)F)nc2)n3C)C1	7.00
CCn1ncc(-c2nc3c(O[C@H]4CCN(c5ncnc6ccsc56)C4)ncnc3n2C)c1C	7.92

Structure (SMILES)	pIC50
CCn1c(-c2cnc(C(F)(F)F)nc2)nc2c(O[C@H]3CCN(C(=O)C4CC4)C3)ncnc21	7.74
CCn1ncc(-c2nc3c(O[C@H]4CCN(C(=O)c5nnsc5C)C4)ncnc3n2C)c1C	8.28
CCn1ncc(-c2nc3c(O[C@H]4CCN(C(=O)c5noc(C(C)(C)O)n5)C4)ncnc3n2C)c1C	6.92
CCn1ncc(-c2nc3c(O[C@H]4CCN(C(=O)c5cncn5C)C4)ncnc3n2C)c1C	8.27
CCn1c(-c2cnc(OC)c(C(F)(F)F)c2)nc2c(O[C@H]3CCN(C(=O)C4CC4)C3)ncnc21	> 9.00
CCn1ncc(-c2nc3c(O[C@@H]4CCN(C(=O)C5CCOCC5)C4)ncnc3n2C)c1C	5.80
CCn1ncc(-c2nc3c(OC4CCN(C(=O)COC)C4)ncnc3n2C)c1C (centres undefined)	7.11
CCn1c(-c2cnc(C)nc2)nc2c(O[C@@H]3CN(C(=O)OC(C)(C)C)CC3(F)F)ncnc21.CCn1c(-c2cnc(C)nc2)nc2c(O[C@H]3CN(C(=O)OC(C)(C)C)CC3(F)F)ncnc21	7.66
CCn1c(-c2cnc(C)nc2)nc2c(OC3CN(C(=O)C4CC4)CC3C)ncnc21 (centres undefined)	8.54
CCn1c(C(=O)NCC(F)(F)F)nc2c(O[C@H]3CCN(C(=O)OC(C)(C)C)C3)ncnc21	7.51
CCn1c(-c2cnc(OC)c(F)c2)nc2c(O[C@H]3CCN(C(=O)C(C)C)C3)ncnc21	> 9.00
CCn1c(-c2ccc(OC(F)F)nc2)nc2c(O[C@@H]3CCN(C(=O)C4CC4)C3)ncnc21	7.85
Cn1c(-c2cnc(C(C)(C)C)s2)nc2c(O[C@H]3CCN(C(=O)OC(C)(C)C)C3)ncnc21	8.16
CCn1ncc(-c2nc3c(O[C@H]4CCN(C(=O)c5cccn5C)C4)ncnc3n2C)c1C	8.06
CCn1c(N2CCC(C)C2)nc2c(O[C@H]3CCN(C(=O)OC(C)(C)C)C3)ncnc21 (some centres undefined)	6.24
CCn1ncc(-c2nc3c(OC4CCN(C(=O)C5CCCCC5)C4)ncnc3n2C)c1C (centres undefined)	7.66
CCc1nc(C)c(C(=O)N2CC[C@H](Oc3ncnc4c3nc(-c3cnn(CC)c3C)n4C)C2)o1	7.92
Cc1ncc(-c2nc3c(O[C@H]4CCN(C(=O)OC(C)(C)C)C4)ncnc3n2C)n1C	7.55
CCn1ncc(-c2nc3c(O[C@H]4CCN(C(=O)c5ccccn5)C4)ncnc3n2C)c1C	7.57
Cn1c(-c2ccc(N3CCCC3)nc2)nc2c(O[C@H]3CCN(C(=O)OC(C)(C)C)C3)ncnc21	6.23
CCn1ncc(-c2nc3c(O[C@H]4CCN(C(=O)C5CCOCC5)C4)ncnc3n2CC)c1C	> 9.00
CCC(=O)N1CC[C@H](Sc2ncnc3c2nc(-c2cnn(CC)c2C)n3C)C1	7.96

Structure (SMILES)	pIC50
CCn1ncc(-c2nc3c(O[C@H]4CCN(C(=O)C5(C)CCOCC5)C4)ncnc3n2C)c1C	7.55
CCn1c(-c2cnc(C)nc2)nc2c(O[C@H]3CCN(C(=O)N4CCC(C)(O)C4)C3)ncnc21 (some centres undefined)	8.14
CCOC(=O)N1CC[C@H](Oc2ncnc3c2nc(-c2cnn(CC)c2C)n3C)C1	7.48
CCn1ncc(-c2nc3c(S[C@H]4CCN(C(=O)c5coc(C)n5)C4)ncnc3n2C)c1C	7.60
CCn1c(-c2cnc(N(C)C)nc2)nc2c(O[C@H]3CCN(C(=O)C4CC4)C3)ncnc21	7.64
CCn1ncc(-c2nc3c(O[C@H]4CCN(c5nccc6sccc56)C4)ncnc3n2C)c1C	8.00
Cc1nn(C)cc1-c1nc2c(O[C@H]3CCN(C(=O)OC(C)(C)C)C3)ncnc2n1C	5.92
CCn1c(-c2ccc(OC)c(F)c2)nc2c(O[C@H]3CCN(C(=O)C4CC4)C3)ncnc21	8.66
Cn1c(-c2cn[nH]c2)nc2c(O[C@H]3CCN(C(=O)OC(C)(C)C)C3)ncnc21	7.55
CCn1c(-c2cnc(C)nc2)nc2c(O[C@H]3CCN(C(=O)N4CCC(C)(C)C4)C3)ncnc21	8.42
CCn1c(-c2cnc(C)nc2)nc2c(O[C@H]3CN(C(=O)C4CC4)C[C@@H]3O)ncnc21	7.77
CCn1c(-c2cnc(C)nc2)nc2c(O[C@H]3CCN(C(=O)N4CCC4)C3)ncnc21	8.89
CCC(=O)N1CC[C@H](Oc2ncnc3c2nc(-c2cnc(OC)c(F)c2)n3C)C1	8.03
CN(C)c1ccc(-c2nc3c(O[C@H]4CCN(C(=O)OC(C)(C)C)C4)ncnc3n2C)cn1	7.19
CCn1ncc(-c2nc3c(OC4CCN(C(=O)c5ccccc5)CC4)ncnc3n2C)c1C	6.02
CCC(=O)N1CC[C@H](Oc2ncnc3c2nc(-c2ccc4[nH]ncc4c2)n3C)C1	7.36
CCn1c(-c2cnc(C)nc2)nc2c(O[C@H]3CCN(C(=O)N4CC(O)C4)C3)ncnc21	8.37
CCn1ncc(-c2nc3c(S[C@H]4CCN(C(=O)C5CC5)C4)ncnc3n2C)c1C	8.42
CCOC(=O)C(C)NC(=O)N1CC[C@H](Oc2ncnc3c2nc(-c2cnn(CC)c2C)n3C)C1 (some centres undefined)	6.96
CCC(=O)N1CC[C@H](Oc2ncnc3c2nc(C(F)(F)F)n3C)C1	6.37
